Oligonucleotides are written 5' to 3', each unit as a sugar letter and its base; * is a phosphorothioate linkage, no mark a phosphodiester; rarer units and linkages stand in square brackets, end groups in braces. Plain capitals give the bases only. e = 2'-O-(2-methoxyethyl) (MOE); [5mC] = 5-methylcytosine
Key:
[1] = test system: endogenous SMN2 E7 alternative splicing; experiment: SMN2 E7 alternative splicing by radioactive RT-PCR in HEK293T cells; type: cell-based, human; settings: for effect of the drug on ASO1's effect on E7 inclusion: HEK293T transfected with 25 nM ASO1, increasing doses of TSA 24 hr; for effect of the drug on ASO1's effect on E7 inclusion / effect on SMN2 E7 inclusion, agent alone: 25 µM 5-AZA 48 hr; for effect on SMN2 E7 inclusion, agent alone: 25 nM ASO, 3 µM TSA 24 hr, 3 µM CPT
Method: Alternative splicing was analyzed by radioactive RT-PCR followed by native polyacrylamide gel electrophoresis and autoradiography. Bars display means ± SD of percentage of the radioactivity in the FL band over the sum of radioactivity measurements in the FL and ΔE7 bands of at least three independent transfection experiments. A two-tailed Student’s t test was used to determine the significance between events. (FIG. 1A) HEK293T cells were co-transfected with the SMN2 minigene and expression vectors for WT^res and hC4 Pol II, followed by addition of α-amanitin. (FIG. 1B) Effect of camptothecin (CPT) on SMN2 E7 alternative splicing. HEK293T cells were incubated for at least 6 hours with 3 µM CPT. Combined effects on endogenous SMN2 E7 alternative splicing of transfection with 25 nM ASO1 and treatment with 3 µM TSA for 24 hr (FIG. 1C), 10 mM VPA for 24 hr (FIG. 1D), or 25 µM 5-AZA for 48 hr (FIG. 1E). Combined effects on HEK293T endogenous SMN2 E7 alternative splicing of transfection with 25 nM each of si-hnRNPA1 and si-hnRNPA2, and treatment with 3 µM TSA for 24 hr (FIG. 1F) or 10 mM VPA for 24 hr (FIG. 1G). […]
HEK293T, HeLa, and SMA type I homozygous and carrier fibroblasts 3813 and 3814 (Coriell Cell Repositories, Camden, New Jersey, United States) were grown in Dulbecco’s modified Eagle’s medium (DMEM) containing 4.5 g of glucose and 10% fetal bovine serum (Gibco) at 37° C. Cells were plated at a density of 2×10^5 cells per well in 12-well plates 24 hr before transfection. siRNA (25 nM), plasmid (500 ng), or ASO (25 nM) transfections were performed 24 hr after cells were plated, using 3 µl of Lipofectamine 2000 (Thermo Fisher Scientific) per well in 12-well plates. 24-48 h later, cells were treated with Trichostatin A (Sigma, T8552), Valproic Acid (Sigma, P4543), 5-Azacytidine (Sigma, A2385) or vehicle for the indicated time, and harvested for downstream procedures. […]

[2] = test system: endogenous SMN2 E7 alternative splicing in HeLa cells; experiment: SMN2 E7 alternative splicing by radioactive RT-PCR in HeLa cells; type: cell-based, human; settings: 10 nM ASO1 and 3 µM TSA 24 hr
Method: (§1) Combined effects on endogenous SMN2 E7 alternative splicing in transfected (FIG. 5A) HEK293T cells with 25 nM ASO1 and increasing doses of TSA for 24 hr, (FIG. 5B) HeLa cells with 10 nM ASO1 and 3 µM TSA for 24 hr., and (FIG. 5C) SMA patient fibroblasts (3813) with 10 nM ASO1 and 3 µM TSA for 24 hr. Bars display means ± SD of percentage of the radioactivity in the FL band over the sum of radioactivity measurements in the FL and ΔE7 bands of at least three independent transfection experiments. (FIG. 5D and FIG. 5E) Transcriptional activation was assessed by RT-qPCR. (FIG. 5F) HEK293T cells with 3 nM ASO1 and 10 mM VPA for 24 hr. Bars indicate mean transcriptional activation ± SD ratios between precursors of SMN2 and GAPDH as the control gene. Statistical significance was analyzed by two-tailed Student’s t-tests. P < 0.05 was considered statistically significant.
(§2) HEK293T, HeLa, and SMA type I homozygous and carrier fibroblasts 3813 and 3814 (Coriell Cell Repositories, Camden, New Jersey, United States) were grown in Dulbecco’s modified Eagle’s medium (DMEM) containing 4.5 g of glucose and 10% fetal bovine serum (Gibco) at 37° C. […]

SMN2 pre-mRNA = experiment: Transcriptional activation by RT-qPCR of SMN2 pre-mRNA in HEK293T cells; type: cell-based, human; settings: HDAC inhibitor alone
[3] = test system: endogenous SMN2 E7 alternative splicing in SMA patient fibroblasts; experiment: SMN2 E7 alternative splicing by radioactive RT-PCR in SMA patient fibroblasts (3813); type: cell-based, human; settings: 10 nM ASO1 and 3 µM TSA 24 hr
Method: as §1, §2

[4] = test system: H3K9me2 along the SMN2 gene; experiment: ChIP-qPCR of H3K9me2 distribution along the SMN2 gene in HEK293T cells; type: cell-based, human; settings: HEK293T; ASO transfection or 10 mM VPA
Method: (§3) H3K9me2 (FIG. 2B), total RNAPII (FIG. 2C), P-Ser5 RNAPII (FIG. 2D), and P-Ser2 RNAPII (FIG. 2E) distribution along the SMN2 gene, assessed by ChIP-qPCR in HEK293T cells transfected with the scramble oligo (CTRL) or ASO1 and treated with 10 mM VPA. Four independent immunoprecipitation replicates were conducted per experiment. Data are represented as mean ± S.D. (n = 4, *p < 0.05, two-tailed Student’s t test).
(§4) Total distribution of H3K9me2 (FIG. 3C), total RNAPII (FIG. 3D), P-Ser5 RNAPII (FIG. 3E), and P-Ser2 RNAPII (FIG. 3F) along the SMN2 gene is shown. This distribution was assessed by ChIP-qPCR in HEK293T cells transfected with the scramble oligo (CTRL) or ASO2 and treated with 10 mM VPA. Four independent immunoprecipitation replicates were conducted per experiment. Data are represented as mean ± S.D. (n = 4, *p < 0.05, two-tailed Student’s t test).
Approximately 2×10^6 HEK293T cells per sample were treated for 10 min in 1% (v/v) formaldehyde at room temperature to crosslink protein-DNA complexes. Crosslinking was stopped with glycine at a final concentration of 125 mM. Cells were washed twice with cold PBS and swelled on ice for 10 min in 25 mM HEPES pH 8, 1.5 mM MgCl2, 10 mM KCl, 0.1% NP-40, 1 mM DTT and 1× protease inhibitor cocktail set III (Calbiochem). Following Dounce homogenization, the nuclei were collected and resuspended in 1 ml sonication buffer (50 mM HEPES pH 8, 140 mM NaCl, 1 mM EDTA, 0.1% sodium deoxycholate, 0.1% SDS and 1× protease inhibitor cocktail). DNA was sonicated in an ultrasonic bath (Bioruptor Diagenode) to an average length of 200-500 bp. After addition of 1% (v/v) Triton X-100, samples were centrifuged at 15,000 ×g. Supernatants were immunoprecipitated O/N with 40 µl of pre-coated anti-IgG magnetic beads (Dynabeads M-280, Invitrogen) previously incubated with the antibody of interest for 6 hr at 4° C. The antibodies used were: rabbit anti-H3 (2 µg, Abcam ab1791), mouse anti-H3K9me2 (4 µg, Abcam ab1220), rabbit anti H3K9me3 (4 µg, Abcam ab8898), rabbit anti H3K9Ac (2 µg, Abcam ab4441), rabbit anti Rpb1 NTD (2 µg, Cell Signaling, D8L4Y), rabbit Phospho-Rpb1 CTD Ser2 (2 µg, Cell Signaling, E1Z3G), rabbit Phospho-Rpb1 CTD Ser5 (2 µg, Cell Signaling, D9N5I). Control immunoprecipitations were performed with rabbit IgG (1 µg, Abcam ab171870). […] Immunoprecipitated DNA (1.5 µl) and serial dilutions of the 10% input DNA (1:4, 1:20, 1: 100, and 1:500) were analyzed by SYBR-Green real-time qPCR.

[5] = test system: H3K9me2 along SERF1A, MYOD, GAPDH; experiment: Specificity control ChIP-qPCR of H3K9me2 on SERF1A, MYOD and GAPDH in HEK293T cells; type: cell-based, human
Method: FIGS. 6A-6D show antisense oligonucleotides and their effects on chromatin. […] Uppercase, exonic nucleotide sequence. Lowercase, intronic sequences. Upstream highlight, binding site for ASO1. Downstream highlight, binding site for ASO2. Levels of H3K9me2 deposition along small EDRK-rich factor 1A (SERF1A, upstream of SMN2) (FIG. 6B), Myoblast Determination Protein (MYOD) (FIG. 6C), and Glyceraldehyde 3-phosphate dehydrogenase (GAPDH) (FIG. 6D), were assessed by ChIP-qPCR in HEK293T cells. Data represented as mean ± S.D. (n = 4, *p < 0.05, two-tailed Student’s t test).
Approximately 2×10^6 HEK293T cells per sample were treated for 10 min in 1% (v/v) formaldehyde at room temperature to crosslink protein-DNA complexes. Crosslinking was stopped with glycine at a final concentration of 125 mM. Cells were washed twice with cold PBS and swelled on ice for 10 min in 25 mM HEPES pH 8, 1.5 mM MgCl2, 10 mM KCl, 0.1% NP-40, 1 mM DTT and 1× protease inhibitor cocktail set III (Calbiochem). Following Dounce homogenization, the nuclei were collected and resuspended in 1 ml sonication buffer (50 mM HEPES pH 8, 140 mM NaCl, 1 mM EDTA, 0.1% sodium deoxycholate, 0.1% SDS and 1× protease inhibitor cocktail). […] Immunoprecipitated DNA (1.5 µl) and serial dilutions of the 10% input DNA (1:4, 1:20, 1: 100, and 1:500) were analyzed by SYBR-Green real-time qPCR.

[6] = test system: RNAPII (total, P-Ser5, P-Ser2) along the SMN2 gene; experiment: ChIP-qPCR of RNAPII distribution along the SMN2 gene in HEK293T cells; type: cell-based, human; settings: ASO transfection vs scramble
Method: as §3, §4
Approximately 2×10^6 HEK293T cells per sample were treated for 10 min in 1% (v/v) formaldehyde at room temperature to crosslink protein-DNA complexes. Crosslinking was stopped with glycine at a final concentration of 125 mM. Cells were washed twice with cold PBS and swelled on ice for 10 min in 25 mM HEPES pH 8, 1.5 mM MgCl2, 10 mM KCl, 0.1% NP-40, 1 mM DTT and 1× protease inhibitor cocktail set III (Calbiochem). Following Dounce homogenization, the nuclei were collected and resuspended in 1 ml sonication buffer (50 mM HEPES pH 8, 140 mM NaCl, 1 mM EDTA, 0.1% sodium deoxycholate, 0.1% SDS and 1× protease inhibitor cocktail). DNA was sonicated in an ultrasonic bath (Bioruptor Diagenode) to an average length of 200-500 bp. After addition of 1% (v/v) Triton X-100, samples were centrifuged at 15,000 ×g. Supernatants were immunoprecipitated O/N with 40 µl of pre-coated anti-IgG magnetic beads (Dynabeads M-280, Invitrogen) previously incubated with the antibody of interest for 6 hr at 4° C. The antibodies used were: rabbit anti-H3 (2 µg, Abcam ab1791), mouse anti-H3K9me2 (4 µg, Abcam ab1220), rabbit anti H3K9me3 (4 µg, Abcam ab8898), rabbit anti H3K9Ac (2 µg, Abcam ab4441), rabbit anti Rpb1 NTD (2 µg, Cell Signaling, D8L4Y), rabbit Phospho-Rpb1 CTD Ser2 (2 µg, Cell Signaling, E1Z3G), rabbit Phospho-Rpb1 CTD Ser5 (2 µg, Cell Signaling, D9N5I). Control immunoprecipitations were performed with rabbit IgG (1 µg, Abcam ab171870). Beads were washed sequentially for 5 min each in Low-salt (20 mM Tris-HCl pH 8, 150 mM NaCl, 2 mM EDTA, 1% Triton X-100, 0.1% SDS), High-Salt (20 mM Tris-HCl pH 8, 500 mM NaCl, 2 mM EDTA, 1% Triton X-100, 0.1% SDS) and LiCl buffer (10 mM Tris pH 8.0, 1 mM EDTA, 250 mM LiCl, 1% NP-40, 1% Na-deoxycholate) for 5 min at 4° C. and then twice in TE 1x for 2 min at room temperature. Beads were eluted in 1% SDS and 100 mM NaHCO3 buffer for 15 min at 65° C. and crosslinking was reversed for 6 hr after addition of NaCl to a final concentration of 200 mM. Chromatin was precipitated with ethanol overnight, treated with 20 µg proteinase K, and purified by phenol-chloroform extraction. Immunoprecipitated DNA (1.5 µl) and serial dilutions of the 10% input DNA (1:4, 1:20, 1: 100, and 1:500) were analyzed by SYBR-Green real-time qPCR.

SMN2 E7 = settings: saturating doses; cited from earlier work

Molecule: Nc1ncn([C@@H]2O[C@H](CO)[C@@H](O)[C@H]2O)c(=O)n1 [5-AZA, 5-aza cytidine]
- effect of the drug on ASO1's effect on E7 inclusion [1]: enhanced the effects of ASO1 as effectively as the HDAC inhibitors
- effect on SMN2 E7 inclusion, agent alone ([1]; HEK293T): no effect per se on E7 inclusion

Molecule: CC[C@@]1(O)C(=O)OCc2c1cc1n(c2=O)Cc2cc3ccccc3nc2-1 [CPT, camptothecin]
- effect on SMN2 E7 inclusion, agent alone ([1]; HEK293T): promoted E7 skipping

Molecule: CC(/C=C/C(=O)NO)=C\[C@@H](C)C(=O)c1ccc(N(C)C)cc1 [TSA, trichostatin A]
- cooperative effect of TSA with ASO1 on E7 inclusion [2]: reproducible
- levels of SMN2 pre-mRNA (promoter-proximal amplicon) (SMN2 pre-mRNA): increased the levels of SMN2 pre-mRNA
- cooperative effect of TSA with ASO1 on E7 inclusion [3]: reproducible
- effect of the drug on ASO1's effect on E7 inclusion [1]: dose-dependent
- effect on SMN2 E7 inclusion, agent alone ([1]; HEK293T): less potent than ASO1 in upregulating E7 inclusion
- effect of hnRNPA1/A2 depletion in promoting E7 inclusion upon HDAC inhibitor treatment ([1]; HEK293T, 25 nM each si-hnRNPA1 and si-hnRNPA2, no ASO1, 3 µM TSA or 10 mM VPA 24 hr): stronger

Molecule: ASO2: 5′-AAAGTATGTTTCTTCCACAC-3′ 2′-O-methoxyethyl phosphorothioate oligonucleotide; target in SMN2 intron 7 downstream of the ASO1 site (antisense eA*eA*eA*eG*eT*eA*eT*eG*eT*eT*eT*e[5mC]*eT*eT*e[5mC]*e[5mC]*eA*e[5mC]*eA*e[5mC])
- H3K9me2 marks along the SMN2 gene [4]: promoted H3K9 methylation
- H3K9 dimethylation in control genes (same TAD: SERF1A; outside TAD: MYOD, GAPDH) [5]: neither ASO1 nor ASO2 promoted H3K9 dimethylation
- inhibition of SMN2 E7 inclusion, ASO2 combined with CPT ([1]; HEK293T, 25 nM ASO2 in combination with 3 µM CPT 24 hr): stronger
- effect on SMN2 E7 inclusion, agent alone ([1]; HEK293T): inhibited SMN2 E7 inclusion as efficiently as the elongation inhibitor CPT
- P-Ser2 RNAPII density [6]: higher
- P-Ser5 RNAPII density [6]: higher
- total RNAPII density [6]: higher

Molecule: nusinersen: TCACTTTCATAATGCTGG; 2′-O-(2-methoxyethyl) phosphorothioate-modified antisense-oligonucleotide drug targeting a splicing silencer in SMN2 intron 7 (all 2'-MOE, all phosphorothioate, methylation of C not given here)
- inclusion of SMN2 E7 (SMN2 E7): nearly full inclusion of SMN2 E7

Reference: patent US20230302036A1, “COMPOSITIONS FOR TREATMENT OF SPINAL MUSCULAR ATROPHY” (priority 2020, published 2023)
